# Measured values reported in patent publication US6204282A, “Benzimidazole compounds that are vitronectin receptor antagonists” (Schering Corporation, priority 1999, dated 2001).
# pIC50: −log10 of the molar value.
# Biological target: T1, αvβ3 receptor (Homo sapiens, UniProt P05106+P06756)
# T1 construct: αvβ3 receptor (purified from human placenta); from tissue; host or cells: human placenta
# Test: competition radioligand binding assay, 125I-echistatin to purified αvβ3 receptor
# Conditions: inhibition of specific binding of 125I-echistatin (0.05 nM), 3 hour incubation at room temperature
row,pIC50,SMILES
1,8.19,O=C(N[C@@H](CNC(=O)c1ccc(CN(Cc2nc3ccccc3[nH]2)C(=O)c2ccc(Cl)cc2)cc1)C(=O)O)OCc1ccccc1 [Example 5-2]
2,8.25,O=C(N[C@@H](CNC(=O)c1ccc(CN(Cc2nc3ccccc3[nH]2)C(=O)C(F)(F)F)cc1)C(=O)O)OCc1ccccc1 [Example 5-12]
3,8.47,CCCC(=O)N(Cc1ccc(C(=O)NC[C@H](NC(=O)OCc2ccccc2)C(=O)O)cc1)Cc1nc2ccccc2[nH]1 [Example 5-11]
4,~6.30,COCC(=O)N(Cc1cccc(C(=O)NC[C@H](NC(=O)OCc2ccccc2)C(=O)O)c1)Cc1nc2ccccc2[nH]1 [Example 5-10]
5,9.38,COCC(=O)N(Cc1ccc(C(=O)NC[C@H](NC(=O)OCc2ccccc2)C(=O)O)cc1)Cc1nc2ccccc2[nH]1 [Example 5-5]

# Continued, compound first:
row,SMILES,pIC50
1,O=C(N[C@@H](CNC(=O)c1ccc(CN(Cc2nc3ccccc3[nH]2)C(=O)c2ccc3c(c2)OCO3)cc1)C(=O)O)OCc1ccccc1 [Example 5-4],8.54
2,CC(=O)N(Cc1ccc(C(=O)NC[C@H](NC(=O)OCc2ccccc2)C(=O)O)cc1)Cc1nc2ccccc2[nH]1 [Example 5-3],8.72
3,CC(=O)N(Cc1cccc(C(=O)NC[C@H](NC(=O)OCc2ccccc2)C(=O)O)c1)Cc1nc2ccccc2[nH]1 [Example 5-8],~6.30
4,O=C(N[C@@H](CNC(=O)c1ccc(CNCc2nc3ccccc3[nH]2)cc1)C(=O)O)OCc1ccccc1 [Example 5-1],8.27
5,CC(C)NC(=O)N(Cc1ccc(C(=O)NC[C@H](NC(=O)OCc2ccccc2)C(=O)O)cc1)Cc1nc2ccccc2[nH]1 [Example 5-30],8.64
6,O=C(N[C@@H](CNC(=O)c1cccc(CNCc2nc3ccccc3[nH]2)c1)C(=O)O)OCc1ccccc1 [Example 5-6],~6.30
7,O=C(N[C@@H](CNC(=O)c1cccc(CN(Cc2nc3ccccc3[nH]2)C(=O)c2ccc(Cl)cc2)c1)C(=O)O)OCc1ccccc1 [Example 5-7],~6.30
8,O=C(N[C@@H](CNC(=O)c1cccc(CN(Cc2nc3ccccc3[nH]2)C(=O)c2ccc3c(c2)OCO3)c1)C(=O)O)OCc1ccccc1 [Example 5-9],~6.30
9,CN(C)C(=O)N(Cc1ccc(C(=O)NC[C@H](NC(=O)OCc2ccccc2)C(=O)O)cc1)Cc1nc2ccccc2[nH]1 [Example 5-41],8.55

# Biological target: αllbβ3 receptor (Homo sapiens, UniProt P05106+P08514)
# Test: similar competitive assay with purified αllbβ3 receptor and 125I-echistatin (specificity index versus αvβ3)
# Assay type: binding
# Conditions: IC50 αllbβ3 / IC50 αvβ3
# Text: The specificity index, which is a measure of the relative binding affinity for αvβ3 versus αllbβ3, may be determined by dividing the IC50 value for αllbβ3by the IC50 value for αvβ3.
row,SPECIFICITY αIIb β3/αvβ3 (specificity index),SMILES
1,87,O=C(N[C@@H](CNC(=O)c1ccc(CN(Cc2nc3ccccc3[nH]2)C(=O)C(F)(F)F)cc1)C(=O)O)OCc1ccccc1 [Example 5-12]
2,775,CC(C)NC(=O)N(Cc1ccc(C(=O)NC[C@H](NC(=O)OCc2ccccc2)C(=O)O)cc1)Cc1nc2cc(Cl)ccc2[nH]1 [Example 5-95]
3,144,O=C(N[C@@H](CNC(=O)c1ccc(CN(Cc2nc3ccccc3[nH]2)C(=O)NCc2ccccc2)cc1)C(=O)O)OCc1ccccc1 [Example 5-29]
4,288,O=C(N[C@@H](CNC(=O)c1ccc(CN(Cc2nc3ccccc3[nH]2)C(=O)NC23CC4CC(CC(C4)C2)C3)cc1)C(=O)O)OCc1ccccc1 [Example 5-40]
5,124,CC(C)NC(=O)N(Cc1ccc(C(=O)NC[C@H](NC(=O)OCc2ccccc2)C(=O)O)cc1)Cc1nc2ccccc2n1C [Example 5-93]
6,0.2,O=C(NC(CNC(=O)c1ccc(CNCCc2nc3ccccc3[nH]2)cc1)C(=O)O)OCc1ccccc1 (centres unmarked) [Example 5-70]
7,174,Cn1c(CN(Cc2ccc(C(=O)NC[C@H](NC(=O)OCc3ccccc3)C(=O)O)cc2)C(=O)NC2CCCCC2)nc2ccccc21 [Example 5-92]
8,1.43,O=C(N[C@H](CNC(=O)c1ccc(CNCc2nc3ccccc3[nH]2)cc1)C(=O)O)OCc1ccccc1 [Example 5-57]
9,70,CCCC(=O)N(Cc1ccc(C(=O)NC[C@H](NC(=O)OCc2ccccc2)C(=O)O)cc1)Cc1nc2ccccc2[nH]1 [Example 5-11]
10,240,O=C(N[C@@H](CNC(=O)c1ccc(CN(Cc2nc3ccccc3[nH]2)C(=O)Nc2ccc(Cl)cc2)cc1)C(=O)O)OCc1ccccc1 [Example 5-35]
11,91,CCOCC(=O)N(Cc1ccc(C(=O)NC[C@H](NC(=O)OCc2ccccc2)C(=O)O)cc1)Cc1nc2ccccc2[nH]1 [Example 5-26]
12,1333,"CCOC(=O)CNC(=O)N(Cc1ccc(C(=O)NC[C@H](NC(=O)OCc2ccccc2)C(=O)O)cc1)Cc1nc2ccccc2[nH]1 [Example 5-45, N^3-[4-[(benzimidazol-2-yl)methyl][[(ethoxycarbonylmethyl)amino]-carbonyl]aminomethylbenzoyl]-N^2 -Cbz-L-2,3-diaminopropionic acid]"
13,0.4,O=C(O)CC(NC(=O)c1ccc(CN(Cc2nc3ccccc3[nH]2)C(=O)CCc2ccccc2)cc1)c1ccccc1 (centres unmarked) [Example 5-68]
14,151,CCOc1ccc(NC(=O)N(Cc2ccc(C(=O)NC[C@H](NC(=O)OCc3ccccc3)C(=O)O)cc2)Cc2nc3ccccc3[nH]2)cc1 [Example 5-32]
15,33.9,CC(c1nc2ccccc2[nH]1)N(Cc1ccc(C(=O)NC[C@H](NC(=O)OCc2ccccc2)C(=O)O)cc1)C(=O)CCc1ccccc1 (some centres unmarked) [Example 5-78]
16,421,CC(C)(C)NC(=O)N(Cc1ccc(C(=O)NC[C@H](NC(=O)OCc2ccccc2)C(=O)O)cc1)Cc1nc2ccccc2[nH]1 [Example 5-34]
17,0.3,CC(=O)N(CCc1nc2ccccc2[nH]1)Cc1ccc(C(=O)NCC(NC(=O)OCc2ccccc2)C(=O)O)cc1 (centres unmarked) [Example 5-71]

# Further lines, the compound ahead of its results:
row,SMILES,SPECIFICITY αIIb β3/αvβ3 (specificity index)
1,CC(C)NC(=O)N(Cc1ccc(C(=O)NC[C@H](NC(=O)OCc2ccccc2)C(=O)O)cc1)Cc1nc2ccccc2[nH]1 [Example 5-30],296
2,CN(C)C(=O)N(Cc1ccc(C(=O)NC[C@H](NC(=O)OCc2ccccc2)C(=O)O)cc1)Cc1nc2ccccc2[nH]1 [Example 5-41],19
3,CSCC(=O)N(Cc1ccc(C(=O)NC[C@H](NC(=O)OCc2ccccc2)C(=O)O)cc1)Cc1nc2ccccc2[nH]1 [Example 5-23],22
4,O=C(N[C@@H](CNC(=O)c1ccc(CN(Cc2nc3ccccc3[nH]2)C(=S)NC2CCCCC2)cc1)C(=O)O)OCc1ccccc1 [Example 5-55],620
5,CCOC(=O)[C@H](Cc1ccccc1)NC(=O)N(Cc1ccc(C(=O)NC[C@H](NC(=O)OCc2ccccc2)C(=O)O)cc1)Cc1nc2ccccc2[nH]1 [Example 5-52],448
6,COCC(=O)N(CCc1nc2ccccc2[nH]1)Cc1ccc(C(=O)NCC(NC(=O)OCc2ccccc2)C(=O)O)cc1 (centres unmarked) [Example 5-72],0.5
7,CCOC(=O)N(Cc1ccc(C(=O)NC[C@H](NC(=O)OCc2ccccc2)C(=O)O)cc1)Cc1nc2ccccc2[nH]1 [Example 5-20],15
8,O=C(N[C@H](CNC(=O)c1ccc(CN(Cc2nc3ccccc3[nH]2)C(=O)CCc2ccccc2)cc1)C(=O)O)OCc1ccccc1 [Example 5-59],65
9,CCOC(=O)[C@@H](NC(=O)N(Cc1ccc(C(=O)NC[C@H](NC(=O)OCc2ccccc2)C(=O)O)cc1)Cc1nc2ccccc2[nH]1)C(C)C [Example 5-51],1210
10,CC(c1nc2ccccc2[nH]1)N(Cc1ccc(C(=O)NC[C@H](NC(=O)OCc2ccccc2)C(=O)O)cc1)C(=O)CCC1CCCC1 (some centres unmarked) [Example 5-79],19.0
11,CCCCOC(=O)N[C@@H](CNC(=O)c1ccc(CN(Cc2nc3ccccc3[nH]2)C(=O)Nc2ccc(C(=O)OCC)cc2)cc1)C(=O)O [Example 5-91],1183
12,COCC(=O)N(Cc1ccc(C(=O)NC(CC(=O)O)c2ccccc2)cc1)Cc1nc2ccccc2[nH]1 (centres unmarked) [Example 5-67],0.5
13,CCOC(=O)[C@H](C)NC(=O)N(Cc1ccc(C(=O)NC[C@H](NC(=O)OCc2ccccc2)C(=O)O)cc1)Cc1nc2ccccc2[nH]1 [Example 5-50],805
14,CC(C)(C)OC(=O)N[C@@H](CNC(=O)c1ccc(CNCc2nc3ccccc3[nH]2)cc1)C(=O)O [Example 5-60],90
15,CC(C)(C)OC(=O)N[C@@H](CNC(=O)c1ccc(CN(Cc2nc3ccccc3[nH]2)C(=O)CCc2ccccc2)cc1)C(=O)O [Example 5-63],293
16,CCCCOC(=O)N[C@@H](CNC(=O)c1ccc(CN(Cc2nc3ccccc3[nH]2)C(=O)Nc2ccccc2)cc1)C(=O)O [Example 5-83],1689
17,O=C(N[C@@H](CNC(=O)c1ccc(CN(Cc2nc3ccccc3[nH]2)C(=O)C2CC2c2ccccc2)cc1)C(=O)O)OCc1ccccc1 (some centres unmarked) [Example 5-22],26
18,O=C(N[C@@H](CNC(=O)c1ccc(CN(Cc2nc3ccccc3[nH]2)C(=O)N2CCOCC2)cc1)C(=O)O)OCc1ccccc1 [Example 5-42],39
19,COc1ccc(OC(=O)N(Cc2ccc(C(=O)NC[C@H](NC(=O)OCc3ccccc3)C(=O)O)cc2)Cc2nc3ccccc3[nH]2)cc1 [Example 5-21],41
